Format in all cases: cell-based
The subject of one assay is Wnt activity. The assay can be described thus: Wnt activity screening assay, Sp5-Luc reporter gene in SW480 cells. As to conditions: Homo sapiens; for EC50: Sp5-Luc reporter, SW480 cells, overnight incubation; for inhibition at 10 µM: SW480, read-out: percent inhibition at 10 μM. The text has this:
The screening assay for Wnt activity is described as follows. Reporter cell lines can be generated by stably transducing cancer cell lines (e.g., colon cancer) or primary cells (e.g., IEC-6 intestinal cells) with a lentiviral construct that includes a Wnt-responsive promoter driving expression of the firefly luciferase gene.
SW480 colon carcinoma cells were transduced with a lentiviral vector expressing luciferase with a human Sp5 promoter consisting of a sequence of eight TCF/LEF binding sites. SW480 cells stably expressing the Sp5-Luc reporter gene and a hygromycin resistance gene were selected by treatment with 150 μg/mL of hygromycin for 7 days. These stably transduced SW480 cells were expanded in cell culture and used for all further screening activities. […] For Sp5-Luc reporter gene assays, the cells were plated at 4,000 cells/well in 384-well plates with medium containing 1% fetal bovine serum and incubated overnight at 37° C. and 5% CO2. Following incubation, 20 μl of BrightGlo luminescence reagent (Promega) was added to each well of the 384-well assay plates. The plates were placed on an orbital shaker for 2 min and then luminescence was quantified using the Envision (Perkin Elmer) plate reader. Readings were normalized to DMSO only treated cells, and normalized activities were utilized for EC50 calculations using the dose-response log (inhibitor) vs. response -variable slope (four parameters) nonlinear regression feature available in GraphPad Prism 5.0 (or Dotmatics).
A general note: In a reporter assay the amount or activity of a reporter protein is the signal.

Another assay has as its system SW480 colon cancer cells. The assay can be described thus: Cell viability assay (CellTiter-Blue) in SW480 colon cancer cells. As to conditions: Homo sapiens; for EC50: 96 h, SW480 cell viability, four days, CellTiter-Blue; for inhibition at 10 µM: SW480, read-out: percent inhibition at 10 μM. As to the method:
Representative compounds were screened using the following assay procedure to assess the effect on cell viability as described below.
Approximately 2×10^3 SW480 colon cancer cells were seeded into each well and allowed to incubate in the presence or absence of compound for four days at 37° C./5% CO2. Eight replicates of DMSO-treated cells served as controls and cells treated with compound were performed in duplicate.
After incubation, 20 μL of CellTiter-Blue (Promega) was added to each well allowed to incubate for approximately 3 hours. This reagent was a buffered solution which contains resazurin, metabolically active cells were able to reduce rezarurin (blue) into resorufin (pink) which was highly fluorescent. This measured fluorescence was used as a readout for cell viability.
(In general: Resazurin is reduced to fluorescent resorufin, in cell work by metabolically active cells.)

In assay [1] the test system is primary human fibroblasts derived from IPF patients (LL29 cells). The assay can be described thus: Inhibition of the fibrotic process: αSMA staining in TGF-β1 treated LL29 fibroblasts. As to conditions: Fibroblast; for EC50: 96 h, LL29 cells, TGF-β1 20 ng/mL, 4 days, % αSMA positive cells; for inhibition at 10 µM: read-out: percent inhibition at 10 μM. As to the method:
Representative compounds were screened using primary human fibroblasts (derived from IPF patients) treated with TGF-β1 to determine their ability to inhibit the fibrotic process.
LL29 cells are plated at 1,500 cells/well in 80 μL/well F12 medium supplemented with 1% Fetal Bovine Serum. […] Wells treated with TGF-β1 and containing DMSO were used as controls. […] Following incubation for 4 days, SYTOX green nucleic acid stain (Life Technologies [Thermo Fisher Scientific]) was added to the wells at a final concentration of 1 μM and incubated at room temperature for 30 min.

The next assay relates to IL-6. The assay can be described thus: IL-6 inhibition in LPS-stimulated THP-1 cells (HTRF). As to conditions: Homo sapiens; for EC50: THP-1 cells, LPS 500 ng/mL, 22 hours, IL6 HTRF; for inhibition at 10 µM: THP-1, read-out: percent inhibition at 10 μM. As to the method: THP-1 cells were cultured in basal media with 1% FBS for 24 hours before the start of the assay. […] THP-1 cells were plated at 5000 cells/well in the 384-well plates and incubated at 37° C. for 2 h. 500 ng/mL of LPS was added after 2 hours and cells were incubated for another 22 hours at 37° C. Plates were spun in a centrifuge for 1 minute at […] and a mixture of anti-IL6 XL665, and anti-IL6 Cryptate diluted in reconstitution buffer (Cisbio Inc.) was added to each well. Following incubation for 3 hrs at room temperature, Homogeneous Time-Resolved Fluorescence (HTRF) was measured using the Envision (Perkin Elmer) at 665 nm and […]. The ratio of fluorescence at 665 nm to 620 nm was used as a readout for IL6 quantification. All samples were processed in duplicate. Readings were normalized to DMSO treated cells and normalized activities were utilized for EC50 calculations using the dose-response log (inhibitor) vs. response -variable slope (four parameters) nonlinear regression feature available in GraphPad Prism 5.0 (or Dotmatics).

Consider 13 compounds from patent publication US10383861B2, “3-(1H-pyrrolo[2,3-C]pyridin-2-yl)-1H-pyrazolo[3,4-C]pyridines and therapeutic uses thereof” (Samumed, LLC, priority 2015, dated 2019).

As usually defined, the EC50 is the concentration giving half of the maximal effect. Lower therefore signals greater potency. Regarding `O=C(Nc1cncc(-c2cc3c(-c4cc5c(-c6ccccc6F)cncc5[nH]4)n[nH]c3cn2)c1)C1CCCCC1` [Compound 79, N-(5-(3-(4-(2-Fluorophenyl)-1H-pyrrolo[2,3-c]pyridin-2-yl)-1H-pyrazolo[3,4-c]pyridin-5-yl)pyridin-3-yl)cyclohexanecarboxamide], the EC50 amounted to 3.25 µM in the assay on Wnt activity, 1.73 µM in the assay with SW480 colon cancer cells, 1.08 µM in assay [1] and 9.56 µM in the assay on IL-6.

Usually inhibition stands for the percentage by which the read-out fell short of the control. Take `O=C(Cc1ccccc1)Nc1cncc(-c2cc3c(-c4cc5c(-c6cccnc6)cncc5[nH]4)n[nH]c3cn2)c1` [Compound 94, 2-Phenyl-N-(5-(3-(4-(pyridin-3-yl)-1H-pyrrolo[2,3-c]pyridin-2-yl)-1H-pyrazolo[3,4-c]pyridin-5-yl)pyridin-3-yl)acetamide]: the inhibition at 10 µM was 12.2% with Wnt activity, 28.9% with SW480 colon cancer cells and 0% in assay [1]. Besides, the EC50 in the assay on Wnt activity is greater than 10 µM; in the assay on SW480 colon cancer cells, greater than 10 µM; in assay [1], greater than 10 µM; in the assay on IL-6, 3.05 µM.

Regarding `CC(C)Nc1cncc(-c2cc3c(-c4cc5c(-c6ccc(F)cc6)cncc5[nH]4)n[nH]c3cn2)c1` [Compound 40, 5-(3-(4-(4-Fluorophenyl)-1H-pyrrolo[2,3-c]pyridin-2-yl)-1H-pyrazolo[3,4-c]pyridin-5-yl)-N-isopropylpyridin-3-amine], the half-maximal effective concentration (EC50) was 0.937 µM in the assay on Wnt activity, 1.29 µM with SW480 colon cancer cells, 0.141 µM in assay [1] and 2.47 µM with IL-6.

Consider `O=C(Nc1cncc(-c2cc3c(-c4cc5c(-c6ccc(F)cc6)cncc5[nH]4)n[nH]c3cn2)c1)C1CCC1` [Compound 49, N-(5-(3-(4-(4-Fluorophenyl)-1H-pyrrolo[2,3-c]pyridin-2-yl)-1H-pyrazolo[3,4-c]pyridin-5-yl)pyridin-3-yl)cyclobutanecarboxamide], for which the EC50 in the assay with Wnt activity was 3.65 µM; in the assay with SW480 colon cancer cells, greater than 10 µM; in assay [1], 3.04 µM; in the assay on IL-6 it was greater than 10 µM. Further, the inhibition at 10 µM with SW480 colon cancer cells turned out to be 36%; in the assay with IL-6 it was 42.5%.

For the compound `c1cncc(-c2cncc3[nH]c(-c4n[nH]c5cnc(C6CCNCC6)cc45)cc23)c1` [Compound 553, 5-(Piperidin-4-yl)-3-(4-(pyridin-3-yl)-1H-pyrrolo[2,3-c]pyridin-2-yl)-1H-pyrazolo[3,4-c]pyridine], the inhibition at 10 µM turned out to be 8.3% in the assay on Wnt activity, 11% in the assay with SW480 colon cancer cells and 18.1% in the assay on IL-6. For the same compound, the EC50 in the assay with Wnt activity is greater than 10 µM; with SW480 colon cancer cells it was greater than 10 µM; in assay [1], 1.19 µM; with IL-6, greater than 10 µM.

As for `O=C(Nc1cncc(-c2cc3c(-c4cc5c(-c6ccncc6)cncc5[nH]4)n[nH]c3cn2)c1)c1ccccc1` [Compound 123, N-(5-(3-(4-(Pyridin-4-yl)-1H-pyrrolo[2,3-c]pyridin-2-yl)-1H-pyrazolo[3,4-c]pyridin-5-yl)pyridin-3-yl)benzamide], the inhibition at 10 µM with Wnt activity was 8%; in the assay with SW480 colon cancer cells it was 20.9%; in assay [1], 53.6%; in the assay on IL-6, 19%. In addition, the EC50 (in the assay on Wnt activity; in the assay with SW480 colon cancer cells; in assay [1]; with IL-6) was greater than 10 µM throughout.

Turning to `c1cc(-c2cc3c(-c4cc5c(N6CCCCC6)cncc5[nH]4)n[nH]c3cn2)ccn1` [Compound 186, 3-(4-(Piperidin-1-yl)-1H-pyrrolo[2,3-c]pyridin-2-yl)-5-(pyridin-4-yl)-1H-pyrazolo[3,4-c]pyridine], the half-maximal effective concentration (EC50) in the assay with Wnt activity is 5.51 µM; in the assay on SW480 colon cancer cells it was 3.95 µM; in assay [1] it was 4.87 µM; with IL-6, greater than 10 µM. For the same compound, in the assay with IL-6, the inhibition at 10 µM stood at 20.1%.

For the compound `CS(=O)(=O)NCc1cc(F)cc(-c2cncc3[nH]c(-c4n[nH]c5cnc(-c6ccccn6)cc45)cc23)c1` [Compound 504, N-(3-Fluoro-5-(2-(5-(pyridin-2-yl)-1H-pyrazolo[3,4-c]pyridin-3-yl)-1H-pyrrolo[2,3-c]pyridin-4-yl)benzyl)methanesulfonamide], the EC50 was found to be 2.38 µM in the assay with Wnt activity, 2.98 µM with SW480 colon cancer cells, 2.01 µM in assay [1] and 0.943 µM in the assay on IL-6.

Take `CC(C)(C)CC(=O)Nc1cncc(-c2cc3c(-c4cc5c(-c6cc(F)cc(CNS(C)(=O)=O)c6)cncc5[nH]4)n[nH]c3cn2)c1` [Compound 492, N-(5-(3-(4-(3-Fluoro-5-(methylsulfonamidomethyl)phenyl)-1H-pyrrolo[2,3-c]pyridin-2-yl)-1H-pyrazolo[3,4-c]pyridin-5-yl)pyridin-3-yl)-3,3-dimethylbutanamide]: the inhibition at 10 µM in the assay on Wnt activity stood at 14.6%; in the assay on SW480 colon cancer cells, 16.3%; in assay [1] it was 0%; in the assay with IL-6 it was 29%. Moreover, the EC50 (in the assay with Wnt activity; in the assay with SW480 colon cancer cells; in assay [1]; in the assay on IL-6) was greater than 10 µM each time.

`CC(C)Nc1cncc(-c2cc3c(-c4cc5c(-c6cccnc6)cncc5[nH]4)n[nH]c3cn2)c1` [Compound 96, N-Isopropyl-5-(3-(4-(pyridin-3-yl)-1H-pyrrolo[2,3-c]pyridin-2-yl)-1H-pyrazolo[3,4-c]pyridin-5-yl)pyridin-3-amine]: the EC50 in the assay with Wnt activity is 0.94 µM; in the assay with SW480 colon cancer cells, greater than 10 µM; in assay [1], 0.624 µM; in the assay on IL-6 it was 3.15 µM. The inhibition at 10 µM in the assay on SW480 colon cancer cells was 25.2%.

For the compound `Fc1ccccc1-c1cncc2[nH]c(-c3n[nH]c4cnc(-c5cn[nH]c5)cc34)cc12` [Compound 539, 3-(4-(2-Fluorophenyl)-1H-pyrrolo[2,3-c]pyridin-2-yl)-5-(1H-pyrazol-4-yl)-1H-pyrazolo[3,4-c]pyridine], the inhibition at 10 µM with Wnt activity was determined as 8.6%; with SW480 colon cancer cells, 3.6%; in the assay with IL-6, 0%. Also, the 50% effective concentration (EC50) was greater than 10 µM in the assay on Wnt activity, greater than 10 µM in the assay with SW480 colon cancer cells, 2.43 µM in assay [1] and greater than 10 µM with IL-6.

For `CCC(=O)Nc1cncc(-c2cc3c(-c4cc5c(-c6ccc(F)cc6)cncc5[nH]4)n[nH]c3cn2)c1` [Compound 29, N-(5-(3-(4-(4-Fluorophenyl)-1H-pyrrolo[2,3-c]pyridin-2-yl)-1H-pyrazolo[3,4-c]pyridin-5-yl)pyridin-3-yl)propionamide], the inhibition at 10 µM was found to be 37.8% in the assay with Wnt activity, 29.6% in the assay with SW480 colon cancer cells, 49.1% in assay [1] and 43% with IL-6. Further, the EC50 (with Wnt activity; in the assay with SW480 colon cancer cells; in assay [1]; with IL-6) was greater than 10 µM in each case.

Regarding `FC1(F)CCN(Cc2cncc(-c3cc4c(-c5cc6c(-c7cccs7)cncc6[nH]5)n[nH]c4cn3)c2)C1` [Compound 362, 5-(5-((3,3-Difluoropyrrolidin-1-yl)methyl)pyridin-3-yl)-3-(4-(thiophen-2-yl)-1H-pyrrolo[2,3-c]pyridin-2-yl)-1H-pyrazolo[3,4-c]pyridine], the concentration giving a half-maximal response (EC50) was 5.24 µM with Wnt activity, 4.1 µM in the assay on SW480 colon cancer cells, 1.16 µM in assay [1] and 1.32 µM with IL-6.
